The source of these data is patent US10954253B2, “1,2-dihydro-3H-pyrazolo[3,4-d]pyrimidin-3-one derivative as Wee1 inhibitor” (SHIJIAZHUANG SAGACITY NEW DRUG DEVELOPMENT CO., LTD., priority 2017, dated 2021).

In the assay the target is Wee1 (Homo sapiens (Human), UniProt P30291). Put plainly: In vitro enzymatic inhibitory activity (33P-ATP filter-binding kinase assay, MBP substrate). Format: biochemical. The following applies: Wee-1 150 nM, MBP 20 μM. As for the experimental part: The compounds of the present invention for experimental use were all self-prepared, and their chemical names and structural formulas are shown in the preparation embodiments of the respective compounds. The experimental tests were carried out in Reaction Biology Corporation, USA, and the experimental results were provided by the company. Basic reaction buffer: 20 mM hydroxyethylpiperazine ethanesulfuric acid (pH 7.5), 10 mM magnesium chloride, 1 mM EGTA, 0.02% Brij35, 0.02 mg/mL bovine serum albumin, 0.1 mM Na3VO4, 2 mM DTT, 1% DMSO Enzyme: Wee-1 concentration is 150 nM Matrix: MBP concentration is 20 μM The tested compound was formulated into a 5 mM solution with 100% DMSO, and a 10 points 3-fold gradient dilution was performed with DMSO through an automated pipetting station epMotion 5070. 1. Fresh matrix configuration reaction buffer was prepared; 2. The Wee-1 was added into the matrix solution and shaked gently; 3. DMSO solution of the compound were added into the kinase reaction mixture using an acoustic technique (Echo 550; nanoliter range) and incubated for 20 minutes at room temperature; 4. ^33P-ATP (specific activity, 10 μCi/μL) was added into the reaction mixture to stimulate the reaction; 5. Incubated for 2 hours at room temperature; 6. Kinase activity was detected by filter-binding method.
Sequence of Wee1 (P30291 whole entry): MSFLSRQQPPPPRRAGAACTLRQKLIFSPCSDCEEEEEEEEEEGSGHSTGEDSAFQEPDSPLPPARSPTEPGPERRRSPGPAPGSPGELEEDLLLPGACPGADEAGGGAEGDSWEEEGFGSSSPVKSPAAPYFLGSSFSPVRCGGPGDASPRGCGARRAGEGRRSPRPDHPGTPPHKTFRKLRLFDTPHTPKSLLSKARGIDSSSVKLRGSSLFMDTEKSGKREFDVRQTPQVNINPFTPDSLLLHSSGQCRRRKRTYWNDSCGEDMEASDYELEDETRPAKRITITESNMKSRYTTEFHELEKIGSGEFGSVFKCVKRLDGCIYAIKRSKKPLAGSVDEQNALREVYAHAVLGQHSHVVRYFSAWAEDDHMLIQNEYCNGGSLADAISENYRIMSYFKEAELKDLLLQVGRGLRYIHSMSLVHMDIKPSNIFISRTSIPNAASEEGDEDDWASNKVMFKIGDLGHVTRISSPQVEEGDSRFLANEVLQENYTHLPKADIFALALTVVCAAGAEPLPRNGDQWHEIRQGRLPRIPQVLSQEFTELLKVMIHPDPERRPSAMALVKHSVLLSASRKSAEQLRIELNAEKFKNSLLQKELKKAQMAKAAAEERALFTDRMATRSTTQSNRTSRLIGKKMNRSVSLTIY

By IC50 is commonly meant the concentration that gives 50% inhibition. Read a low IC50 as higher potency. In turn, `C=CCn1c(=O)c2cnc(Nc3ccc(N4CCC5(CCN(C)CC5)CC4)cc3)nc2n1-c1cncnc1` [Embodiment 6, 2-allyl-6-((4-(9-methyl-3,9-diazaspiro[5.5]undecan-3-yl)phenyl)amino)-1-(pyrimidin-5-yl)-1H-pyrazolo[3,4-d]pyrimidin-3(2H)-one] registered an IC50 of 102 nM.
In the case of `C=CCn1c(=O)c2cnc(Nc3ccc(N4CCC5(CCN(C)CC5)CC4)cc3)nc2n1-c1cccs1` [Embodiment 7, 2-allyl-6-((4-(9-methyl-3,9-diazaspiro[5.5]undecan-3-yl)phenyl)amino)-1-(thiophen-2-yl)-1H-pyrazolo[3,4-d]pyrimidin-3(2H)-one] it was 82.5 nM.
In the case of `C=CCn1c(=O)c2cnc(Nc3ccc(N4CCC5(CCN(C)CC5)CC4)cc3)nc2n1-c1ccsc1` [Embodiment 8, 2-allyl-6-((4-(9-methyl-3,9-diazaspiro[5.5]undecan-3-yl)phenyl)amino)-1-(thiophen-3-yl)-1H-pyrazolo[3,4-d]pyrimidin-3(2H)-one] it was 51.9 nM; in that of `C=CCn1c(=O)c2cnc(Nc3ccc(N4CCC5(CCN(C)CC5)CC4)cc3)nc2n1-c1nccs1` [Embodiment 9, 2-allyl-6-((4-(9-methyl-3,9-diazaspiro[5.5]undecan-3-yl)phenyl)amino)-1-(thiazol-2-yl)-1H-pyrazolo[3,4-d]pyrimidin-3(2H)-one], 109 nM.
Turning to `C=CCn1c(=O)c2cnc(Nc3ccc(N4CCC5(CCN(C)CC5)CC4)cc3)nc2n1-c1cccc(Cl)c1` [Embodiment 11, 2-allyl-1-(3-chlorophenyl)-6-((4-(9-methyl-3,9-diazaspiro[5.5]undecan-3-yl)phenyl)amino)-1H-pyrazolo[3,4-d]pyrimidin-3(2H)-one], the IC50 amounted to 48.1 nM.
`C=CCn1c(=O)c2cnc(Nc3ccc(N4CCC5(CCN(C)CC5)CC4)cc3)nc2n1-c1ccc(Cl)cc1` [Embodiment 12, 2-allyl-1-(4-chlorophenyl)-6-((4-(9-methyl-3,9-diazaspiro[5.5]undecan-3-yl)phenyl)amino)-1H-pyrazolo[3,4-d]pyrimidin-3(2H)-one] came in with an IC50 of 25.3 nM.
In the case of `C=CCn1c(=O)c2cnc(Nc3ccc(N4CCC5(CCN(C)CC5)CC4)cc3)nc2n1-c1cccc(C(N)=O)n1` [Embodiment 13, 6-(2-allyl-6-((4-(9-methyl-3,9-diazaspiro[5.5]undecan-3-yl)phenyl)amino)-3-oxo-2,3-dihydro-1H-pyrazolo[3,4-d]pyrimidin-1-yl)picolinamide] it was 42 nM; in that of `C=CCn1c(=O)c2cnc(Nc3ccc(N4CCC5(CCN(C)CC5)CC4)cc3)nc2n1-c1cccc(C(=O)NC)n1` [Embodiment 14, 6-(2-allyl-6-((4-(9-methyl-3,9-diazaspiro[5.5]undecan-3-yl)phenyl)amino)-3-oxo-2,3-dihydro-1H-pyrazolo[3,4-d]pyrimidin-1-yl)-N-methylpicolinamide], 47.8 nM; in that of `C=CCn1c(=O)c2cnc(Nc3ccc(N4CCC5(CCN(C)CC5)CC4)cc3)nc2n1-c1cccc(C(N)=O)c1` [Embodiment 16, 3-(2-allyl-6-((4-(9-methyl-3,9-diazaspiro[5.5]undecan-3-yl)phenyl)amino)-3-oxo-2,3-dihydro-1H-pyrazolo[3,4-d]pyrimidin-1-yl)benzamide], 52.8 nM.
In the case of `C=CCn1c(=O)c2cnc(Nc3ccc(N4CCC5(CCN(C)CC5)CC4)cc3)nc2n1-c1cccc(C(=O)NC)c1` [Embodiment 17, 3-(2-allyl-6-((4-(9-methyl-3,9-diazaspiro[5.5]undecan-3-yl)phenyl)amino)-3-oxo-2,3-dihydro-1H-pyrazolo[3,4-d]pyrimidin-1-yl)-N-methylbenzamide] it was 42.5 nM; in that of `CN1CCC2(CC1)CCN(c1ccc(Nc3ncc4c(=O)n(C)n(-c5ccccc5)c4n3)cc1)CC2` [Embodiment 18, 2-methyl-6-((4-(9-methyl-3,9-diazaspiro[5.5]undecane-3-yl)phenyl)amino)-1-phenyl-1H-pyrazolo[3,4-d](2H)-one], 131 nM.
The same measure for `CCn1c(=O)c2cnc(Nc3ccc(N4CCC5(CCN(C)CC5)CC4)cc3)nc2n1-c1ccccc1` [Embodiment 19, 2-ethyl-6-((4-(9-methyl-3,9-diazaspiro[5.5]undecan-3-yl)phenyl)amino)-1-phenyl-1H-pyrazolo[3,4-d](2H)-one]: 83.2 nM; for `CN1CCC2(CC1)CCN(c1ccc(Nc3ncc4c(=O)n(CC(F)F)n(-c5ccccc5)c4n3)cc1)CC2` [Embodiment 22, 2-(2,2-difluroethyl)-6-((4-(9-methyl-3,9-diazaspiro[5.5]undecan-3-yl)phenyl)amino)-1-phenyl-1H-pyrazolo[3,4-d](2H)-one]: 239 nM.
For `CN1CCC2(CC1)CCN(c1ccc(Nc3ncc4c(=O)n(Cc5ccccc5)n(-c5ccccc5)c4n3)cc1)CC2` [Embodiment 23, 2-benzyl-6-((4-(9-methyl-3,9-diazaspiro[5.5]undecane-3-yl)phenyl)amino)-1-phenyl-1H-pyrazolo[3,4-d](2H)-one], the IC50 was found to be 79.6 nM.
`CCCn1c(=O)c2cnc(Nc3ccc(N4CCC5(CCN(C)CC5)CC4)cc3)nc2n1-c1cccc(C(C)(C)O)n1` [Embodiment 24, 1-(6-(2-hydroxypropan-2-yl)pyridin-2-yl)-6-((4-(9-methyl-3,9-diazaspiro[5.5]undecan-3-yl)phenyl)amino)-2-propyl-1H-pyrazolo[3,4-d]pyrimidin-3(2H)-one] displayed an IC50 of 48.8 nM.
In turn, `C=CCn1c(=O)c2cnc(Nc3ccc(N4CCC5(CCN(C)CC5)CC4)cc3)nc2n1-c1cccc(Cl)n1` [Embodiment 25, 2-allyl-1-(6-chloropyridin-2-yl)-6-((4-(9-methyl-3,9-diazaspiro[5.5]undecan-3-yl)phenyl)amino)-1H-pyrazolo[3,4-d]pyrimidin-3(2H)-one] returned an IC50 of 20.4 nM.
The same measure for `C=CCn1c(=O)c2cnc(Nc3ccc(N4CCC5(CCN(C)CC5)CC4)cc3)nc2n1-c1ccc(Cl)cn1` [Embodiment 26, 2-allyl-1-(5-chloropyridin-2-yl)-6-((4-(9-methyl-3,9-diazaspiro[5.5]undecan-3-yl)phenyl)amino)-1H-pyrazolo[3,4-d]pyrimidin-3(2H)-one]: 14.1 nM; for `C=CCn1c(=O)c2cnc(Nc3ccc(N4CCC5(CCN(C)CC5)CC4)cc3)nc2n1-c1cccc(F)n1` [Embodiment 27, 2-allyl-1-(6-fluoropyridin-2-yl)-6-((4-(9-methyl-3,9-diazaspiro[5.5]undecane-3-yl)phenyl)amino)-1H-pyrazolo[3,4-d]pyrimidin-3(2H)-one]: 24.9 nM; for `C=CCn1c(=O)c2cnc(Nc3ccc(N4CCC5(CCN(C)CC5)CC4)cc3)nc2n1-c1ccc(F)cn1` [Embodiment 28, 2-allyl-1-(5-fluoropyridin-2-yl)-6-((4-(9-methyl-3,9-diazaspiro[5.5]undecan-3-yl)phenyl)amino)-1H-pyrazolo[3,4-d]pyrimidin-3(2H)-one]: 13.2 nM.
For the compound `C=CCn1c(=O)c2cnc(Nc3ccc(N4CCC5(CCN(C(=O)OC)CC5)CC4)cc3)nc2n1-c1cccc(C(C)(C)O)n1` [Embodiment 31, methyl-9-(4-((2-allyl-1-(6-(2-hydroxypropan-2-yl)pyridin-2-yl)-3-oxo-2,3-dihydro-1H-pyrazolo[3,4-d]pyrimidin-6-yl)amino)phenyl)-3,9-diazaspiro[5.5]undecan-3-ethyl carboxylate], the IC50 came to 15 nM.
